Measurements taken from ChEMBL document CHEMBL1201862, “PubChem BioAssay data set” (2004).
The source made the active and inactive calls.

How the values were obtained:
[1] = cytotoxicity toward NIH3T3 fibroblasts, dose response, counter-screen, cell-based, ATP luminescence, mouse fibroblasts (AID 2010); type: functional;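 further: cells exposed to compound for about 90 hours before reading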
[2] = target: 5-hydroxytryptamine receptor 1E (Homo sapiens, UniProt P28566); experiment: Counterscreen assay for S1P3 antagonists: Dose response cell-based high throughput screening assay to identify antagonists of the 5-Hydroxytryptamine Receptor Subtype 1E (5HT1E). [Related pubchem assays: 1429, 485 ]; type: functional
[3] = target: Sphingosine 1-phosphate receptor 3 (Homo sapiens, UniProt Q99500); experiment: Dose response cell-based high throughput screening assay for antagonists of the Sphingosine 1-Phosphate Receptor 3 (S1P3). [Related pubchem assays: 1429, 485 ]; type: functional
[4] = inhibitors of intracellular T. cruzi replication, confirmation, NIH3T3 host cells, beta-gal luminescence (AID 2044); type: functional, cell-based;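 further: intracellular parasites grown in NIH/3T3 mouse fibroblasts as host cells; luminescent beta-galactosidase reporter signal from transgenic T. cruzi replicating inside host cells; inhibitors lower the luminescence signal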
Mucolipin-3 = Mucolipin-3 (Homo sapiens, UniProt Q8TDD5); experiment: Dose response cell-based high-throughput screening assay for agonists of the transient receptor potential channel ML3 (TRPML3). [Related pubchem assays: 1526, 1424, 1448 ]; type: functional
Ion channel NompC = Ion channel NompC (Danio rerio, UniProt Q7T1G6); experiment: Fluorescence counterscreen assay for TRPML3 agonists: dose response cell-based high-throughput screening assay to identify agonists of the transient receptor potential channel N1 (TRPN1). [Related pubchem assays: 1526, 1424, 1448 ]; type: functional
[5] = A Cell Based Secondary Assay To Explore Cytotoxicity of Compounds that Sensitize Mycobacterium Tuberculosis to Beta-Lactam Antibiotics.; type: functional
[6] = target: T1, Carboxy-terminal domain RNA polymerase II polypeptide A small phosphatase 1 (Homo sapiens, UniProt Q9GZU7); experiment: inhibitors of CTDSP1, concentration-response testing, biochemical assay, absorbance-based, actives from ultra-high-throughput screening (AID 540297); type: functional
T1 sequence (Q9GZU7 whole entry): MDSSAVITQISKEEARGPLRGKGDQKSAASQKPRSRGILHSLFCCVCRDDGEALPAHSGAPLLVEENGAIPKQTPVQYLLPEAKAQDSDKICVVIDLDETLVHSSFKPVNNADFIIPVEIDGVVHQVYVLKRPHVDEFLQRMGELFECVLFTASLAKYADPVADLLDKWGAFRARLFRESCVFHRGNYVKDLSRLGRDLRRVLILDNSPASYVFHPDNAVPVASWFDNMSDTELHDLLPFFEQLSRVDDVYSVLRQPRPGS

[7] = target: T2, Microphthalmia-associated transcription factor (Homo sapiens, UniProt O75030); experiment: TRPM1 promoter luciferase signal decrease, dose response, MITF inhibitor project, cell-based, SK-MEL-5, cherry-picked, set 3 (AID 493073); type: functional
T2 sequence (O75030 whole entry): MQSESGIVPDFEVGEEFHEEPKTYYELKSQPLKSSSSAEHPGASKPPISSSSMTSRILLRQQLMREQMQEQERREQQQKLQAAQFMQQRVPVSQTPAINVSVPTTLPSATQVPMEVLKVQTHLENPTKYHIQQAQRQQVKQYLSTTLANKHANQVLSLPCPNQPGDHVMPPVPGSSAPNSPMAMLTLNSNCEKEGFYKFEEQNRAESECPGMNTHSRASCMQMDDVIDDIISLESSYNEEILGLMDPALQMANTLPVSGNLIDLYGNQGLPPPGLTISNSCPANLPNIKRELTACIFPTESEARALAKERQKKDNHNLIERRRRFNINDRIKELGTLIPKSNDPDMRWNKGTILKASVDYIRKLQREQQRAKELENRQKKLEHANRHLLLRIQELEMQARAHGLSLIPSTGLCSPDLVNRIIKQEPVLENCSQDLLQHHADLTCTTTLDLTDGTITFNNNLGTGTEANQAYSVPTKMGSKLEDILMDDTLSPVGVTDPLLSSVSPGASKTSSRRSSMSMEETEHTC

[8] = target: Induced myeloid leukemia cell differentiation protein Mcl-1 (Homo sapiens, UniProt Q07820); experiment: MCL1-BIM BH3 interaction inhibitors, dose response, biochemical, fluorescence polarization, BIM-BH3 peptide, 1536-well (AID 2217)
[9] = NIH-3T3 fibroblast cytotoxicity, dose response, cytotoxicity control, cell-based, fluorescence, Alamar Blue, secondary assay (AID 2327); type: functional;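 further: NIH-3T3 mouse fibroblasts cultured with fluconazole at 8 µg/mL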
Bcl-2-like protein 1 = Bcl-2-like protein 1 (Homo sapiens, UniProt Q07817); experiment: BCL-XL inhibitors, dose response, selectivity assay for MCL1 inhibitor project, biochemical, fluorescence polarization, 1536-well (AID 2218)
Bcl-2-like protein 1, sequence (Q07817 whole entry): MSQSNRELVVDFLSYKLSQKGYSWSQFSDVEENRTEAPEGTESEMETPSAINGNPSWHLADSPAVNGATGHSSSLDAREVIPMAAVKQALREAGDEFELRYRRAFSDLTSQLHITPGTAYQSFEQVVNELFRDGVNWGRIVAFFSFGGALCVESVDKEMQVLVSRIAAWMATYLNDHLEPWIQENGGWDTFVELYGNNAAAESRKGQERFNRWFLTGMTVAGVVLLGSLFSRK

5-hydroxytryptamine receptor 1E, sequence (P28566 whole entry): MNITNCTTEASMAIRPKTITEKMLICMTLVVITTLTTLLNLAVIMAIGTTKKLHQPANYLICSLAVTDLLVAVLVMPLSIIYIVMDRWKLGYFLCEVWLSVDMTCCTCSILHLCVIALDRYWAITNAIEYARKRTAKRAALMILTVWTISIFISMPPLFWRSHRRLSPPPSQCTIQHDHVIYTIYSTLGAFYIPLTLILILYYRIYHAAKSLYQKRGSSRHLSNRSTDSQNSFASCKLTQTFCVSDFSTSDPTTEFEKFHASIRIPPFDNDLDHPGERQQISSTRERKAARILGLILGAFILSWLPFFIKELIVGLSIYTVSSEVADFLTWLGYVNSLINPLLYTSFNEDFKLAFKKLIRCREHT
Ion channel NompC, sequence (Q7T1G6 whole entry): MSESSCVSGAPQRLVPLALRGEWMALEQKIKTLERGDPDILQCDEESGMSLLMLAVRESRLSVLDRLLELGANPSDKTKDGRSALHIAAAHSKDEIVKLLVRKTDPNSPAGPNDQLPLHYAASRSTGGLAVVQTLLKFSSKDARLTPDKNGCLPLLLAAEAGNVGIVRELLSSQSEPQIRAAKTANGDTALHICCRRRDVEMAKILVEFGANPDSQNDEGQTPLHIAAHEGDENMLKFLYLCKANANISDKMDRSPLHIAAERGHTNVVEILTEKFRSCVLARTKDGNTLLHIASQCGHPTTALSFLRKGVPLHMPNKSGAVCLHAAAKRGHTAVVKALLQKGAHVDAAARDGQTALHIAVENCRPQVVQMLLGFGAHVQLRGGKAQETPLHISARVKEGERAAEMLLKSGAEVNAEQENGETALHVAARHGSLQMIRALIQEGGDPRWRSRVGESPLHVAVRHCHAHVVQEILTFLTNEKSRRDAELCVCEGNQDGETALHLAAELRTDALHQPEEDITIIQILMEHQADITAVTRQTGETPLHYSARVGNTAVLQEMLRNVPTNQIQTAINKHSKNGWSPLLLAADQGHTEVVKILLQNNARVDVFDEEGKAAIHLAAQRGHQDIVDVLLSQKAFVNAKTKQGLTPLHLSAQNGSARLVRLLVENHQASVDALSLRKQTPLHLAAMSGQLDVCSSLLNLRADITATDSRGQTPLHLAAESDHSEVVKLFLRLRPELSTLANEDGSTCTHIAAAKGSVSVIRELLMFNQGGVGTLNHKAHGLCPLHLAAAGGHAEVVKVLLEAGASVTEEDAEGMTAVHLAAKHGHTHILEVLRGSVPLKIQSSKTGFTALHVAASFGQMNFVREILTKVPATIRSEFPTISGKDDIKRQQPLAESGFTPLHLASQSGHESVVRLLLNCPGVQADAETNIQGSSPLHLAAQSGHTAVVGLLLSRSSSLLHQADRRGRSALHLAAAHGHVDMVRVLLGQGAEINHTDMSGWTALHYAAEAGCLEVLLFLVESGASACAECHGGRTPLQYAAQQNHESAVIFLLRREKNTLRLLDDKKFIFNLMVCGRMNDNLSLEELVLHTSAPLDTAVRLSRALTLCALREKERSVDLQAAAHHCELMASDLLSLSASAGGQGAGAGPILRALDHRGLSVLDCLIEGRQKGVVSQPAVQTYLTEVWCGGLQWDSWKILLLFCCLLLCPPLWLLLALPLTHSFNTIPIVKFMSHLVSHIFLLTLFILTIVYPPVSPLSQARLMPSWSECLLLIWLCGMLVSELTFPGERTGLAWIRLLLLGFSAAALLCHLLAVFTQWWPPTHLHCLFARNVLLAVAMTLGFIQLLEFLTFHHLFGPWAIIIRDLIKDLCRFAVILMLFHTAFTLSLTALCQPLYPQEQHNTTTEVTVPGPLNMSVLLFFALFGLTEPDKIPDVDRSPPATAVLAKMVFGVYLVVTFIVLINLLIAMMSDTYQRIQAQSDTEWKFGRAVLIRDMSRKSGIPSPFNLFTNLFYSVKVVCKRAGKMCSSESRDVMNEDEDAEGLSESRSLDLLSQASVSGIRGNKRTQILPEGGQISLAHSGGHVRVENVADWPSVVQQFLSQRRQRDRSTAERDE
Mucolipin-3, sequence (Q8TDD5 whole entry): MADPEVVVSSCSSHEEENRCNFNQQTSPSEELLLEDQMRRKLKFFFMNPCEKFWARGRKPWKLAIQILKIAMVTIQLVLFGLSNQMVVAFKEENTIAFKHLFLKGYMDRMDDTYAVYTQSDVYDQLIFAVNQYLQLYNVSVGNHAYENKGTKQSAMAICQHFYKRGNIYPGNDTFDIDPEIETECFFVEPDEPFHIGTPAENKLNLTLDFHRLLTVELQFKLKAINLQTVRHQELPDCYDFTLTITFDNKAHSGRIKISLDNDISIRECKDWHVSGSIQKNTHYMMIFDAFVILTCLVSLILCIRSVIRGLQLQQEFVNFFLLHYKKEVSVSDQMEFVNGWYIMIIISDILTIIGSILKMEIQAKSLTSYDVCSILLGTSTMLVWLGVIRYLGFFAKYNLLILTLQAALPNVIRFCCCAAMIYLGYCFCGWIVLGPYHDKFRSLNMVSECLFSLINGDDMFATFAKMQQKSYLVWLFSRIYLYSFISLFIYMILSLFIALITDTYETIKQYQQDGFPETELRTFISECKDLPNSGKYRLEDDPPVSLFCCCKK
Induced myeloid leukemia cell differentiation protein Mcl-1, sequence (Q07820 whole entry): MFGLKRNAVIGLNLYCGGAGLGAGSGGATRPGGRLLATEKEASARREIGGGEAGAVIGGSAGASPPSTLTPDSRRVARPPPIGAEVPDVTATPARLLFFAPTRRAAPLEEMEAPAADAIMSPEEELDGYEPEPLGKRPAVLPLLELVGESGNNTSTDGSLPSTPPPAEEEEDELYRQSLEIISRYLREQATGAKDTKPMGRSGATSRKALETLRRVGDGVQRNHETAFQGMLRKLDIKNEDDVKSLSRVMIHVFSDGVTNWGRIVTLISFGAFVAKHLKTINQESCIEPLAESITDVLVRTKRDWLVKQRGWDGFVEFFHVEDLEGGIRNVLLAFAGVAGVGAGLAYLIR
Sphingosine 1-phosphate receptor 3, sequence (Q99500 whole entry): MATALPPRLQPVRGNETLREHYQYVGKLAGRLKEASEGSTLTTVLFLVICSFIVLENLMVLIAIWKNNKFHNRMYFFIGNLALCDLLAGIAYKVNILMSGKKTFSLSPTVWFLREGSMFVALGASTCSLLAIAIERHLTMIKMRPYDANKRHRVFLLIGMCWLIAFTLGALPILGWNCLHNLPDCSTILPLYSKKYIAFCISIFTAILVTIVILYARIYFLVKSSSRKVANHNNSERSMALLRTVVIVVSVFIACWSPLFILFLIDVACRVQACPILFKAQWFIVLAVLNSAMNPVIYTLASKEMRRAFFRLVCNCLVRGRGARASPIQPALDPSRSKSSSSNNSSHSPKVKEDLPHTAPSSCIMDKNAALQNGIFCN

O=C(Nc1ccc2ccccc2c1)C(c1ccccc1)C1CCCC1 (centres undefined)
EC50 [1]: > 30 µM (not active) | IC50 [2]: 1.85 µM (active) | IC50 [3]: 2.1 µM (active) | EC50 [4]: 2.42 µM (active)

Cc1onc(-c2ccc(Cl)cc2)c1-c1ccnn1S(=O)(=O)c1cccc(C(F)(F)F)c1
EC50 (Mucolipin-3): 4.26 µM (active) | EC50 (Ion channel NompC): > 29.9 µM (not active)

O=C(COc1ccccc1)Nc1cccc(-c2nnc(-c3ccccc3)o2)c1
CC50 [5]: > 40 µM (active)

Cc1nc2ccccn2c1C(=O)N/N=C/c1ccc([N+](=O)[O-])o1
IC50 [6]: 5.79 µM (active) | EC50 [1]: 10.9 µM (active) | AC50 [7]: 8.03 µM (active) | IC50 [8]: 13.2 µM (not active) | EC50 [9]: > 160 µM (inactive) | IC50 (Bcl-2-like protein 1): 55.2 µM (not active) | EC50 [4]: 0.139 µM (active)
